Data reported in the supplement of paper PMC6045584.
± gives the standard deviation of the averaged measurements.

What was measured:
ERLOTINIB = compound: C#Cc1cccc(Nc2ncnc3cc(OCCOC)c(OCCOC)cc23)c1 [ERLOTINIB]; test: surviving fraction relative to DMSO-only wells; higher = less growth inhibition; conditions: exposure time: 5 days
Summary of the method: (§1)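 Lines were retained only if, across three screens, replicate Pearson r was >0.7 and median Z' was >0.3. Viability was measured as CellTiter-Glo luminescence and reported as surviving fraction relative to the median of DMSO-only wells. Readings followed 10 minutes at room temperature, after log-phase tumour cells seeded at 250–500 per well in 384-well plates had been exposed, from 24 hours after seeding, continuously for five days to inhibitors at 0.5, 1, 5, 10, 50, 100, 500 and 1000 nM.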

[1] = compound: Cc1nc(Nc2n[nH]c3c2CN(C(=O)N[C@H](CN(C)C)c2ccccc2)C3(C)C)c2sccc2n1; test: as above; conditions: exposure time: 5 days
Summary of the method: as §1

Test System: CASKI CERVIX
- surviving fraction (ERLOTINIB; 0.5 nM): 0.908 ± 0.099
- surviving fraction (ERLOTINIB; 1 nM): 0.856 ± 0.053
- surviving fraction (ERLOTINIB; 10 nM): 0.8153 ± 0.0021
- surviving fraction (ERLOTINIB; 50 nM): 0.717 ± 0.049
- surviving fraction (ERLOTINIB; 100 nM): 0.547 ± 0.031
- surviving fraction (ERLOTINIB; 500 nM): 0.336 ± 0.013
- surviving fraction (ERLOTINIB; 1000 nM): 0.239 ± 0.018
- surviving fraction ([1]; 0.5 nM): 0.713 ± 0.037
- surviving fraction ([1]; 1 nM): 0.472 ± 0.0095
- surviving fraction ([1]; 5 nM): 0.237 ± 0.0071
- surviving fraction ([1]; 10 nM): 0.193 ± 0.0081
- surviving fraction ([1]; 50 nM): 0.13 ± 0.013
- surviving fraction ([1]; 100 nM): 0.0993 ± 0.012
- surviving fraction ([1]; 500 nM): 0.0227 ± 0.0031
- surviving fraction ([1]; 1000 nM): 0.0183 ± 0.00058

Test System: CHLA90 AUTONOMIC GANGLIA
- surviving fraction (ERLOTINIB; 0.5 nM): 1.01 ± 0.059
- surviving fraction (ERLOTINIB; 1 nM): 0.963 ± 0.12
- surviving fraction (ERLOTINIB; 10 nM): 0.94 ± 0.041
- surviving fraction (ERLOTINIB; 50 nM): 0.984 ± 0.09
- surviving fraction (ERLOTINIB; 100 nM): 0.948 ± 0.079
- surviving fraction (ERLOTINIB; 500 nM): 0.856 ± 0.057
- surviving fraction (ERLOTINIB; 1000 nM): 0.88 ± 0.036
- surviving fraction ([1]; 0.5 nM): 0.916 ± 0.055
- surviving fraction ([1]; 1 nM): 0.826 ± 0.037
- surviving fraction ([1]; 5 nM): 0.58 ± 0.045
- surviving fraction ([1]; 10 nM): 0.477 ± 0.018
- surviving fraction ([1]; 50 nM): 0.38 ± 0.036
- surviving fraction ([1]; 100 nM): 0.331 ± 0.0082
- surviving fraction ([1]; 500 nM): 0.233 ± 0.018
- surviving fraction ([1]; 1000 nM): 0.2 ± 0.011

Test System: CME SYNOVIAL
- surviving fraction (ERLOTINIB; 0.5 nM): 1.29 ± 0.069
- surviving fraction (ERLOTINIB; 1 nM): 1.29 ± 0.052
- surviving fraction (ERLOTINIB; 5 nM): 1.32 ± 0.091
- surviving fraction (ERLOTINIB; 10 nM): 1.33 ± 0.17
- surviving fraction (ERLOTINIB; 50 nM): 1.44 ± 0.17
- surviving fraction (ERLOTINIB; 100 nM): 1.36 ± 0.12
- surviving fraction (ERLOTINIB; 500 nM): 1.29 ± 0.17
- surviving fraction (ERLOTINIB; 1000 nM): 1.16 ± 0.17
- surviving fraction ([1]; 0.5 nM): 0.982 ± 0.12
- surviving fraction ([1]; 1 nM): 1.32 ± 0.047
- surviving fraction ([1]; 5 nM): 0.564 ± 0.077
- surviving fraction ([1]; 10 nM): 1.42 ± 0.17
- surviving fraction ([1]; 50 nM): 0.287 ± 0.018
- surviving fraction ([1]; 100 nM): 1.34 ± 0.057
- surviving fraction ([1]; 500 nM): 0.325 ± 0.025
- surviving fraction ([1]; 1000 nM): 1.31 ± 0.06

Test System: COLO320DM LARGE INTESTINE
- surviving fraction (ERLOTINIB; 0.5 nM): 1.17 ± 0.18
- surviving fraction (ERLOTINIB; 1 nM): 0.993 ± 0.074
- surviving fraction (ERLOTINIB; 5 nM): 1.06 ± 0.094
- surviving fraction (ERLOTINIB; 10 nM): 1.09 ± 0.12
- surviving fraction (ERLOTINIB; 50 nM): 1.155 ± 0.011
- surviving fraction (ERLOTINIB; 100 nM): 1.02 ± 0.078
- surviving fraction (ERLOTINIB; 500 nM): 1.04 ± 0.039
- surviving fraction (ERLOTINIB; 1000 nM): 0.99 ± 0.032
- surviving fraction ([1]; 0.5 nM): 1.1 ± 0.089
- surviving fraction ([1]; 1 nM): 1.04 ± 0.041
- surviving fraction ([1]; 5 nM): 1.11 ± 0.035
- surviving fraction ([1]; 10 nM): 1.1 ± 0.072
- surviving fraction ([1]; 50 nM): 0.793 ± 0.055
- surviving fraction ([1]; 100 nM): 0.745 ± 0.019
- surviving fraction ([1]; 500 nM): 0.333 ± 0.011
- surviving fraction ([1]; 1000 nM): 0.388 ± 0.015

Test System: DU4475 BREAST
- surviving fraction (ERLOTINIB; 0.5 nM): 0.965 ± 0.051
- surviving fraction (ERLOTINIB; 1 nM): 0.972 ± 0.086
- surviving fraction (ERLOTINIB; 100 nM): 1.17 ± 0.027
- surviving fraction (ERLOTINIB; 500 nM): 1.15 ± 0.14
- surviving fraction (ERLOTINIB; 1000 nM): 1.02 ± 0.033
- surviving fraction ([1]; 0.5 nM): 0.654 ± 0.12
- surviving fraction ([1]; 1 nM): 0.452 ± 0.065
- surviving fraction ([1]; 5 nM): 0.138 ± 0.048
- surviving fraction ([1]; 10 nM): 0.0743 ± 0.013
- surviving fraction ([1]; 50 nM): 0.038 ± 0.0095
- surviving fraction ([1]; 100 nM): 0.029 ± 0.0056
- surviving fraction ([1]; 500 nM): 0.0257 ± 0.0045
- surviving fraction ([1]; 1000 nM): 0.0277 ± 0.006

Test System: H23 LUNG
- surviving fraction (ERLOTINIB; 1 nM): 1.04 ± 0.038
- surviving fraction (ERLOTINIB; 5 nM): 0.998 ± 0.065
- surviving fraction (ERLOTINIB; 10 nM): 0.992 ± 0.055
- surviving fraction (ERLOTINIB; 50 nM): 0.774 ± 0.051
- surviving fraction (ERLOTINIB; 100 nM): 0.488 ± 0.016
- surviving fraction (ERLOTINIB; 500 nM): 0.349 ± 0.015
- surviving fraction (ERLOTINIB; 1000 nM): 0.336 ± 0.015
- surviving fraction ([1]; 0.5 nM): 0.989 ± 0.029
- surviving fraction ([1]; 1 nM): 0.929 ± 0.051
- surviving fraction ([1]; 5 nM): 0.578 ± 0.032
- surviving fraction ([1]; 10 nM): 0.35 ± 0.025
- surviving fraction ([1]; 50 nM): 0.26 ± 0.0067
- surviving fraction ([1]; 100 nM): 0.23 ± 0.013
- surviving fraction ([1]; 500 nM): 0.216 ± 0.0089
- surviving fraction ([1]; 1000 nM): 0.206 ± 0.023

Test System: HCC38 BREAST
- surviving fraction (ERLOTINIB; 0.5 nM): 1.16 ± 0.22
- surviving fraction (ERLOTINIB; 1 nM): 1.22 ± 0.14
- surviving fraction (ERLOTINIB; 5 nM): 1.48 ± 0.025
- surviving fraction (ERLOTINIB; 10 nM): 1.29 ± 0.15
- surviving fraction (ERLOTINIB; 50 nM): 1.54 ± 0.15
- surviving fraction (ERLOTINIB; 100 nM): 1.17 ± 0.13
- surviving fraction (ERLOTINIB; 500 nM): 1.19 ± 0.2
- surviving fraction (ERLOTINIB; 1000 nM): 1.1 ± 0.16
- surviving fraction ([1]; 0.5 nM): 1.03 ± 0.25
- surviving fraction ([1]; 1 nM): 0.943 ± 0.17
- surviving fraction ([1]; 5 nM): 0.291 ± 0.038
- surviving fraction ([1]; 10 nM): 0.255 ± 0.029
- surviving fraction ([1]; 50 nM): 0.182 ± 0.02
- surviving fraction ([1]; 100 nM): 0.186 ± 0.034
- surviving fraction ([1]; 500 nM): 0.178 ± 0.034
- surviving fraction ([1]; 1000 nM): 0.0973 ± 0.011

Test System: HCC70 BREAST
- surviving fraction (ERLOTINIB; 0.5 nM): 1.1 ± 0.094
- surviving fraction (ERLOTINIB; 5 nM): 1.15 ± 0.071
- surviving fraction (ERLOTINIB; 10 nM): 1.06 ± 0.097
- surviving fraction (ERLOTINIB; 50 nM): 1.03 ± 0.066
- surviving fraction (ERLOTINIB; 100 nM): 0.992 ± 0.022
- surviving fraction (ERLOTINIB; 500 nM): 1.03 ± 0.044
- surviving fraction (ERLOTINIB; 1000 nM): 0.952 ± 0.096
- surviving fraction ([1]; 0.5 nM): 0.996 ± 0.059
- surviving fraction ([1]; 1 nM): 0.895 ± 0.096
- surviving fraction ([1]; 5 nM): 0.275 ± 0.035
- surviving fraction ([1]; 10 nM): 0.089 ± 0.014
- surviving fraction ([1]; 50 nM): 0.0497 ± 0.0061
- surviving fraction ([1]; 100 nM): 0.038 ± 0.003
- surviving fraction ([1]; 500 nM): 0.032 ± 0.0089
- surviving fraction ([1]; 1000 nM): 0.0307 ± 0.0061

Test System: HCC78 LUNG
- surviving fraction (ERLOTINIB; 0.5 nM): 0.768 ± 0.087
- surviving fraction (ERLOTINIB; 5 nM): 0.918 ± 0.11
- surviving fraction (ERLOTINIB; 10 nM): 1.02 ± 0.033
- surviving fraction (ERLOTINIB; 50 nM): 0.962 ± 0.18
- surviving fraction (ERLOTINIB; 500 nM): 0.767 ± 0.15
- surviving fraction (ERLOTINIB; 1000 nM): 0.847 ± 0.1
- surviving fraction ([1]; 0.5 nM): 0.721 ± 0.087
- surviving fraction ([1]; 1 nM): 0.967 ± 0.1
- surviving fraction ([1]; 5 nM): 0.323 ± 0.047
- surviving fraction ([1]; 10 nM): 0.454 ± 0.14
- surviving fraction ([1]; 50 nM): 0.263 ± 0.027
- surviving fraction ([1]; 100 nM): 0.231 ± 0.03
- surviving fraction ([1]; 500 nM): 0.203 ± 0.036
- surviving fraction ([1]; 1000 nM): 0.21 ± 0.041

Test System: HCC202 BREAST
- surviving fraction (ERLOTINIB; 0.5 nM): 1.37 ± 0.29
- surviving fraction (ERLOTINIB; 5 nM): 1.2 ± 0.2
- surviving fraction (ERLOTINIB; 10 nM): 1.2 ± 0.12
- surviving fraction (ERLOTINIB; 50 nM): 1.64 ± 0.29
- surviving fraction (ERLOTINIB; 100 nM): 1.32 ± 0.28
- surviving fraction (ERLOTINIB; 1000 nM): 0.762 ± 0.15
- surviving fraction ([1]; 0.5 nM): 1.27 ± 0.26
- surviving fraction ([1]; 1 nM): 1.12 ± 0.07
- surviving fraction ([1]; 5 nM): 0.855 ± 0.24
- surviving fraction ([1]; 10 nM): 0.754 ± 0.042
- surviving fraction ([1]; 50 nM): 0.58 ± 0.028
- surviving fraction ([1]; 100 nM): 0.501 ± 0.12
- surviving fraction ([1]; 500 nM): 0.226 ± 0.038
- surviving fraction ([1]; 1000 nM): 0.14 ± 0.049

Test System: HCC1806 BREAST
- surviving fraction (ERLOTINIB; 0.5 nM): 1.04 ± 0.062
- surviving fraction (ERLOTINIB; 1 nM): 1.1 ± 0.067
- surviving fraction (ERLOTINIB; 5 nM): 1.13 ± 0.056
- surviving fraction (ERLOTINIB; 10 nM): 1.15 ± 0.061
- surviving fraction (ERLOTINIB; 50 nM): 1.2 ± 0.042
- surviving fraction (ERLOTINIB; 100 nM): 1.12 ± 0.037
- surviving fraction (ERLOTINIB; 500 nM): 0.656 ± 0.069
- surviving fraction (ERLOTINIB; 1000 nM): 0.623 ± 0.025
- surviving fraction ([1]; 0.5 nM): 0.842 ± 0.06
- surviving fraction ([1]; 1 nM): 0.521 ± 0.022
- surviving fraction ([1]; 5 nM): 0.0733 ± 0.0085
- surviving fraction ([1]; 10 nM): 0.0613 ± 0.0081
- surviving fraction ([1]; 50 nM): 0.0497 ± 0.0047
- surviving fraction ([1]; 100 nM): 0.0377 ± 0.0055
- surviving fraction ([1]; 500 nM): 0.024 ± 0.001
- surviving fraction ([1]; 1000 nM): 0.0237 ± 0.00058
